Values quoted from earlier work, collected in patent publication US20060029543A1, “Treatment of B-cell lymphoma” (priority 2004, published 2006).

Conditions: received more than 200 milligrams per meter squared of doxorubicin

COc1cccc2c1C(=O)c1c(O)c3c(c(O)c1C2=O)C[C@@](O)(C(=O)CO)C[C@@H]3O[C@H]1C[C@H](N)[C@H](O)[C@H](C)O1 [doxorubicin]
Left ventricular dysfunction, long-term survivors affected: 8 of 57
